Experimental findings from patent publication US20240279687A1, “PEPTIDE NUCLEIC ACIDS FOR SPATIOTEMPORAL CONTROL OF CRISPR-CAS BINDING” (Yale University, priority 2021, published 2024) are described below.

Data set [1] addresses T1, dCas9-p300 / MYOD1 sgRNA (UniProt Q09472+Q99ZW2, D10A/H840A).
T1 construct: P2A-PuroR (C)
The data set is described as follows: dCas9-p300 MYOD1 expression in stable K562 cells, RT-qPCR. The settings on record: 250 pmol PNA. The data set is classed as cell-based, human. The procedure:
Stable K562-pLV-dCas9-p300 line was established from lentivirus generated from pLV-dCas9-p300-P2A-PuroR plasmid (Addgene: #83889) and Invitrogen Virapower packaging plasmids in 293FT cells (Invitrogen, R70007) and puromycin selection (2 μg/mL, Gibco). Lines were further transduced with lentivirus similarly generated with pLV-U6-UbC-eGFP-P2A-Bsr plasmids (Addgene: #83925) containing MYOD promoter targeted sgRNA sequences with blasticidin selection (5 μg/mL, Gibco, A1113903, Table 4).
6×10^6 stable dCas9-p300/MYOD1 sgRNA expressing K562 cells (Addgene #83889, Addgene #83925), were nucleofected with 250 pmol of specified PNA (non-targeting BFP or POU5F1) using a Lonza 4D nucleofector. At each specified time point 500 μL of cells were removed from each condition flask, spun down, and frozen. […] Expression relative to the untreated parent K562 line was recorded as fold-change and calculated using the ΔΔCT method. […]
For RNA extractions 0.5×10^6 K562 cells were spun down, washed once with PBS, homogenized using QIAshredder columns (QIAGEN 79656) and processed using QIAGEN RNeasy mini kits (74106) before eluting in 50 μL of water. […] Expression relative to the untreated K562 parent line was recorded as fold-change and calculated from averaged CT values using the ΔΔCT method.
Background: Real-time PCR tracks product formation cycle by cycle.

Data set [2] deals with T1, dCas9-p300 / MYOD1 sgRNA. The data set is described as follows: ChIP-qPCR of H3K27ac occupancy at the MYOD1 promoter region. The class given is cell-based, human. The settings on record: 24 and 48 hours after PNA treatment (250 pmol), subsequent increase at 240 hours. The procedure: K562 cells (6×10^6 cells) were diluted to 0.4×10^6 cells/mL and cross-linked with a final concentration of 1% formaldehyde (Sigma-Aldrich, 252549) for each IP. Chromatin was prepared and sheared according to manufacturer protocol using SimpleChIP Enzymatic Chromatin IP Kit (Cell Signaling, #9003) and QSONICA Q800R3 sonicator for nuclear lysis. For each condition, 10 μg of chromatin was incubated with 3 μg of H3K27ac antibody (abcam ab4729) rotating overnight at 4° C. Chromatin was incubated with 30 μL of protein G magnetic beads (Cell Signaling, #70024) and washed, eluted, reverse cross-linked, and purified according to manufacturer protocol. ChIP-qPCR reactions were conducted in technical triplicate for 2% input and IP samples using a StepOnePLUS Real-Time PCR System (Applied Biosystems), SimpleChIP Universal qPCR Mastermix (Cell Signaling, #88989), and MYOD1 target specific primers (Table 8). Percent occupancy values were calculated by percent input method from 2% input samples for each replicate.

In the case of “KKK-GCACGCCCTTTCCAAACCT-KKK (Three lysine residues flank each end, further chemistry not given here) [MYOD1 p300 PNA]”, in the data set with dCas9-p300 / MYOD1 sgRNA [1], the “time by which epigenetic-mediated MYOD1 gene upregulation was driven down” value is at most 24 h and the “time by which expression returned to the fully upregulated state” value was at most 168 h. Moreover, the “H3K27ac occupancy at the MYOD1 promoter region” value with dCas9-p300 / MYOD1 sgRNA [2] was “significant decrease”.
